Columns and labels:
[1] = biological target: hR.Luc-connector-DhaA.H272F-Flag (UniProt P0A3G2+P27652, H272F/T2A); type: cell-based; conditions: Western blot, anti-R.Luc antibody
[2] = biological target: R.Luc-connector-DhaA.H272F (UniProt P0A3G2+P27652, H272F/T2A); type: binding; conditions: pretreatment with non-biotinylated substrate

Compound	hR.Luc-connector-DhaA.H272F-Flag fusion protein captured [1]	decrease of the efficiency of capturing [2]
O=C(CCCC[C@@H]1SC[C@@H]2NC(=O)N[C@@H]21)NCCOCCOCCCCCCCl [biotin-C10H21NO2—Cl, N-{2-[2-(6-Chlorohexyloxy)-ethoxy]ethyl}-biotin-amide]	more than 50%	–
N-{2-[2-(6-Chlorohexyloxy)-ethoxy]-ethyl}-tetramethylrhodamine-5-(and -6)-amide	–	about 80%

Source: patent publication US9416353B2, “Covalent tethering of functional groups to proteins and substrates therefor” (Promega Corporation, priority 2004, dated 2016)
